# pIC50: −log10 of the molar value.
# Molecular target: T1, CETP (Homo sapiens, UniProt P11597)
# T1 construct: from tissue; host or cells: plasma from a healthy volunteer
# T1 sequence (P11597 18-493): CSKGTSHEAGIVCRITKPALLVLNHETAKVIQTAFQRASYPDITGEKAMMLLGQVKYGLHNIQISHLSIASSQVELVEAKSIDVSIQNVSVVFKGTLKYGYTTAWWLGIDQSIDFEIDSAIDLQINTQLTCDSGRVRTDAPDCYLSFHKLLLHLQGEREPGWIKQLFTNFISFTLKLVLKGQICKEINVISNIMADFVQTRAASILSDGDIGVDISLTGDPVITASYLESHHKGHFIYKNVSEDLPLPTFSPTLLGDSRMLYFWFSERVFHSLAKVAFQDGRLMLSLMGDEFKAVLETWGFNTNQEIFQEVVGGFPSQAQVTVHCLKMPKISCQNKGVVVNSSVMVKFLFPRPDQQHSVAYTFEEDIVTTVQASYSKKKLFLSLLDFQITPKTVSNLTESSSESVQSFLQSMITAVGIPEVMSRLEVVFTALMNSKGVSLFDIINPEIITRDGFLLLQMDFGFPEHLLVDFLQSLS
# Experiment: Inhibitory activity against CETP in vitro (fluorescent BODIPY-CE transfer, donor/acceptor microemulsion, human plasma)
# Type: biochemical
# Details: plasma from a healthy volunteer diluted to 0.64%; preincubation with test solution 37° C. 24 hours, then 3 hours with donor/acceptor microemulsion; fluorescence Ex.550 nm/Em.600 nm; read-out: IC50 (inhibition of CETP activity)
# Description: The inhibitory activity of the compounds of the present invention against CETP was tested in this experiment.
# A solution of 1-Palmitoyl-2-oleoyl-sn-glycero-3-phosphocholine (3.5 mg), cholesteryl oleate (3 mg) and triolein (0.7 mg) in chloroform was mixed and lipid was air-dried under nitrogen gas to remove solvent. 1,4-Dioxane (0.25 ml) was then added and the mixture was stirred for dissolution. The resultant lipid solution (0.2 ml) was slowly injected under the surface of Tris-saline-EDTA(TSE) buffer solution [10 mM Tris/HCl (pH 7.4), 0.15M NaCl, 2 mM EDTA] (10 ml) with Hamilton syringe, while sonicating in ice-bath. After 1-hour-sonication in ice-bath, the solution was stored at 4° C.
# A solution of egg PC (phosphatidylcholine) (0.33 mg) and BODIPY-CE (0.62 mg) in chloroform was mixed. After removing solvent by air-drying lipid under nitrogen gas, TSE buffer solution (3 ml) was added and the solution was sonicated in ice-bath. This solution was filtered to sterilize through 0.22 μm filter and stored at 4° C.
# A test solution was prepared using dimethyl sulfoxide as a solvent. Plasma from a healthy volunteer was diluted to 0.64% with TSE buffer, and to the resultant plasma solution (187 μl) was added a test solution (3 μl) or the solvent alone followed by incubation at 37° C. for 24 hours. After addition of TSE buffer solution (10 μl) containing 5% donor micro-emulsion and 5% acceptor microemulsion, the mixture was incubated at 37° C. for 3 hours. […] CETP activity was defined as the difference between the measurements obtained before incubation and after incubation. The decreasing rate of the difference in the sample was defined as the inhibition rate of CETP activity. IC50 for each sample was calculated from the inhibition rate of CETP activity.
row,Molecule,pIC50
1,CCOC(=O)N1c2ccc(C(F)(F)F)cc2[C@@H](N(Cc2cc(C(F)(F)F)cc(C(F)(F)F)c2)c2ncc(N(C)CCC(=O)O)cn2)C[C@H]1CC [Example 127],9.05
2,"(2R*,4S*)-4-{[3,5-bis(trifluoromethyl)benzyl]-[(5-morpholin-4-yl)pyrimidin-2-yl]}amino-2-ethyl-6-trifluoromethyl-3,4-dihydro-2H-quinoline-1-carboxylic acid 2-hydroxyethyl ester [Example 174]",9.64
3,"(2R,4S)-4-{[3,5-bis(trifluoromethyl)-benzyl]-(5-carboxypyrimidin-2-yl)}amino-2-ethyl-6-trifluoromethyl-3,4-dihydro-2H-quinoline-1-carboxylic acid ethyl ester [Example 16]",8.38
4,"(2R,4S)-4-{[3,5-bis(trifluoromethyl)benzyl]-[5-(2-methoxyethoxy)pyrimidin-2-yl]}amino-2-ethyl-6-trifluoromethyl-3,4-dihydro-2H-quinoline-1-carboxylic acid 2-carboxyethyl ester [Example 291]",9.49
5,"(2R,4S)-4-{[3,5-bis(trifluoromethyl)benzyl]-[5-(morpholin-4-yl)-pyrimidin-2-yl]}amino-2-ethyl-6-trifluoromethyl-3,4-dihydro-2H-quinoline-1-carboxylic acid ethyl ester [Example 1]",9.77
6,"(2R,4S)-4-{[3,5-bis(trifluoromethyl)benzyl]-[5-(morpholin-4-yl)pyrimidin-2-yl]}amino-2-ethyl-6-trifluoromethyl-3,4-dihydro-2H-quinoline-1-carboxylic acid 5-carboxypentyl ester [Example 275]",9.74

# More lines, now with the values ahead:
row,pIC50,Molecule
1,9.18,CCOC(=O)N1c2ccc(C(F)(F)F)cc2C(N(Cc2cc(C(F)(F)F)cc(C(F)(F)F)c2)c2ncc(OCCCCC(=O)O)cn2)CC1CC (stereo not drawn) [Example 198]
2,9.28,"CCOC(=O)N1c2ccc(C(F)(F)F)cc2[C@@H](N(Cc2cc(C(F)(F)F)cc(C(F)(F)F)c2)c2ccc(OCCCC(=O)O)cn2)C[C@H]1CC [Example 231, (2R,4S)-4-{[3,5-bis(trifluoromethyl)benzyl]-[5-(3-carboxypropoxy)pyridin-2-yl]}amino-2-ethyl-6-trifluoromethyl-3,4-dihydro-2H-quinoline-1-carboxylic acid ethyl ester]"
3,8.57,"CCOC(=O)N1c2ccc(C(F)(F)F)cc2[C@@H](N(Cc2cc(C#N)cc(C(F)(F)F)c2)c2ncc(N3CCC(C(=O)O)CC3)cn2)C[C@H]1CC [Example 235, (2R,4S)-4-{[5-(4-carboxypiperidin-1-yl)pyrimidin-2-yl]-(3-cyano-5-trifluoromethylbenzyl)}amino-2-ethyl-6-trifluoromethyl-3,4-dihydro-2H-quinoline-1-carboxylic acid ethyl ester]"
